# Reference: the RepoRT retention time repository
# Experiment: HILIC, Waters ACQUITY UPLC BEH Amide, 100 × 2.1 mm, 1.7 µm; A: water + 0.125% formic acid + 10 mM ammonium formate; B: 5% water + 95% acetonitrile + 0.125% formic acid + 10 mM ammonium formate; gradient (min/%B) 0/100 2/100 7.7/70 9.5/40 10.25/30 12.75/100 17/100
# Conditions: stereoisomer not certain
row,Structure (SMILES),LC retention time
1,COCC1=C(C(=O)OC(C)OC(=O)OC(C)C)N2C(=O)C(NC(=O)C(=NOC)c3csc(N)n3)C2SC1 (centres undefined),1.12 min
2,O=C1CN2Cc3c(ccc(Cl)c3Cl)N=C2N1 [Anagrelide],1.82 min
3,NC(=O)N1c2ccccc2C=Cc2ccccc21 [Carbamazepine],1.21 min
4,COCC1OC(n2cc(C)c(=O)[nH]c2=O)CC1O (centres undefined) [5'-O-Methylthymidine],1.46 min
5,CC(=O)CCCC(=O)O [4-Acetylbutyric acid],1.24 min
6,C#CCN(C)C(C)Cc1ccccc1 (centres undefined) [Selegiline],1.5 min
7,Cc1ncsc1CCO [4-Methyl-5-thiazoleethanol],1.21 min
8,NCCc1ccccc1 [Phenethylamine],4.87 min
9,CC(C)CC(O)C(=O)O (centres undefined) [2-Hydroxy-4-methylpentanoic acid],1.57 min
10,Cc1[nH]cnc1CN1CCc2c(c3ccccc3n2C)C1=O [Alosetron],4.19 min
11,Cc1cc(=O)oc2cc(O)ccc12 [4-Methylumbelliferone],1.22 min
12,CC(C)CC1NC(=O)C2CCCN2C1=O (centres undefined) [Cyclo(Leu-Pro)],1.29 min
13,Nc1c(O)cccc1C(=O)CC(N)C(=O)O (centres undefined) [3-Hydroxykynurenine],7.35 min
14,Cc1ncc(CO)c(C(=O)O)c1O [4-Pyridoxic acid],2.66 min
15,NCC(=O)c1ccccc1 [2-Aminoacetophenone],1.08 min
16,Cn1cnc(C[C@H](N)C(=O)O)c1 [1-Methyl-L-histidine],9.1 min
17,O=c1ccn(C2OC(CO)CC2O)c(=O)[nH]1 (centres undefined) [3-Deoxyuridine],2.87 min
18,CCCCCCCCCCCCCC(=O)OC(CO)CO [2-Myristoylglycerol],1.01 min
19,NCCP(=O)(O)O [2-Aminoethylphosphonic acid],9.39 min
20,c1ccc(Cn2ccnc2)cc1 [1-Benzylimidazole],1.63 min
21,NC(CC(=O)O)C(=O)NC(CCC(=O)O)C(=O)O (centres undefined) [Asp-Glu],9.47 min
22,CC(C)CC(N(C)C)C1(c2ccc(Cl)cc2)CCC1 (centres undefined) [Sibutramine],1.86 min
23,OC1CCCCC1N1CCC(c2ccccc2)CC1 (centres undefined) [Vesamicol],2.65 min

row,Structure (SMILES),LC retention time
1,CN1C2CCC1C(C(=O)O)C(O)C2 (centres undefined) [Ecgonine],7.61 min
2,O=c1ccn(C2CC(O)C(COP(=O)(O)O)O2)c(=O)[nH]1 (centres undefined) [Deoxyuridine monophosphate],8.25 min
3,O=Cc1cccc(O)c1 [3-Hydroxybenzaldehyde],1.18 min
4,C=C1CC2C(CCC3(C)C(=O)CCC23)C2(C)C=CC(=O)C=C12 (centres undefined) [Exemestane],0.98 min
5,O=[N+]([O-])c1cccc2cn[nH]c12 [7-Nitroindazole],1.03 min
6,CC(=O)Nc1ccc(OC2OC(C(=O)O)C(O)C(O)C2O)cc1 (centres undefined) [Acetaminophen glucuronide],7.73 min
7,CCC(=O)C(CC(C)N(C)C)(c1ccccc1)c1ccccc1 (centres undefined) [Methadone],2 min
8,Oc1cc2ccccc2[nH]1 [2-Indolinone],1.36 min
9,C=C(C)CN1CCC23c4c5ccc(O)c4OC2c2[nH]c4ccccc4c2CC3(O)C1C5 (centres undefined),2.93 min
10,CN1C(=O)CN=C(c2ccccc2F)c2cc([N+](=O)[O-])ccc21 [Flunitrazepam],1.05 min
11,Cc1ccccc1-n1c(C)nc2ccccc2c1=O [Methaqualone],1.1 min
12,COc1ccc2[nH]cc(CCO)c2c1 [5-Methoxytryptophol],1.18 min
13,CC(=O)Nc1ccc2c(c1)Cc1ccccc1-2 [N-2-Fluorenylacetamide],4.74 min
14,O=C(O)CCC(O)C(=O)O (centres undefined) [2-Hydroxyglutaric acid],0.91 min
15,CC(C)C(NC(=O)C(N)CCCN=C(N)N)C(=O)O (centres undefined) [Arg-Val],9.3 min
16,NC(=O)OCCCc1ccccc1 [Phenprobamate],1.01 min
17,NC(Cc1ccc(O)c(Cl)c1)C(=O)O (centres undefined) [3-Chlorotyrosine],7.13 min
18,Nc1ccn(C2OC(COP(=O)(O)O)C(O)C2O)c(=O)n1 (centres undefined) [Cytidine-5'-monophosphate],9.48 min
19,OCc1cccnc1 [3-Pyridinemthanol],1.41 min
20,CN1C(=O)CN=C(c2ccccc2)c2cc(Cl)ccc21 [Diazepam],1.1 min
21,CC1C(c2ccccc2)OCCN1C (centres undefined) [Phendimetrazine],2.52 min
22,CC12CCC3C(CC=C4CC(O)CCC43C)C1CCC2=O (centres undefined) [Dehydroepiandrosterone],1.03 min

# The remaining lines, values ahead:
row,LC retention time,Structure (SMILES)
1,2.11 min,CCN1CCCC1CNC(=O)c1c(O)c(Cl)cc(Cl)c1OC (centres undefined) [Raclopride]
2,6 min,CC(=O)NCCc1cnc[nH]1 [N-omega-Acetylhistamine]
3,5.29 min,COC(=O)CN [Methylglycinate]
4,8.68 min,C[C@](N)(Cc1cnc[nH]1)C(=O)O [alpha-Methylhistidine]
5,8.85 min,Nc1ncnc2c1ncn2C1OC(CSCCC(N)C(=O)O)C(O)C1O (centres undefined) [S-Adenosyl-homocysteine]
6,0.92 min,CSCCC(=O)C(=O)O [alpha-Keto-gamma-(methylthio)butyric acid]
7,0.95 min,CCOC(=O)C1=C(C)NC(C)=C(C(=O)OC)C1c1cccc([N+](=O)[O-])c1 (centres undefined) [Nitrendipine]
8,2.99 min,CC(CO)CCNc1ncnc2nc[nH]c12 (centres undefined) [Dihydrozeatin]
9,1.45 min,Cc1cccc(Nc2ccncc2S(=O)(=O)NC(=O)NC(C)C)c1 [Torasemide]
10,10.2 min,NC(CCC(=O)NC(CSSCC(NC(=O)CCC(N)C(=O)O)C(=O)NCC(=O)O)C(=O)NCC(=O)O)C(=O)O (centres undefined) [Glutathione (oxidized)]
11,9.22 min,CN=C(N)NCCCC(N)C(=O)O (centres undefined) [Targinine]
12,4.41 min,CC(Cc1ccccc1)(NC(=O)CN)c1ccccc1 (centres undefined) [Remacemide]
13,8.39 min,"Nc1nc2c(ncn2C2OC3COP(=O)(O)OC3C2O)c(=O)[nH]1 (centres undefined) [Guanosine-3',5'-cyclic monophosphate]"
14,1.3 min,CC(C)=CCCC(C)=CC(=O)O [Geranic acid]
15,1.06 min,CC(C)OC(=O)CCCC=CCC1C(O)CC(O)C1CCC(O)CCc1ccccc1 (centres undefined) [Latanoprost]
16,1.19 min,Oc1ccc(C2COc3cc(O)ccc3C2)cc1 (centres undefined) [Equol]
17,9.34 min,NC(N)=NCCCCC(N)C(=O)O (centres undefined) [Homoarginine]
18,1 min,COc1cc(C(=O)NS(=O)(=O)c2ccccc2C)ccc1Cc1cn(C)c2ccc(NC(=O)OC3CCCC3)cc12 [Zafirlukast]
19,1.81 min,CC(C)=CCNc1ncnc2nc[nH]c12 [Isopentenyladenine]
20,1.19 min,COc1cc(-c2ccc(=O)[nH]n2)ccc1OC(F)F [Zardaverine]
21,1.43 min,CC(C)C(C)C=CC(C)C1CCC2C3=CC=C4CC(O)CCC4(C)C3CCC21C (centres undefined) [Ergosterol]
22,1.35 min,COc1ccc2nc(S(=O)Cc3ncc(C)c(OC)c3C)[nH]c2c1 (centres undefined) [Omeprazole]
23,10.3 min,CC(NC(CCCN=C(N)N)C(=O)O)C(=O)O (centres undefined) [Octopine]
24,1.06 min,CCCCCCCCC=CCCCCCCCCCCCC(N)=O [Erucamide]
25,1.11 min,CC(C=CC1=C(C)CCCC1(C)C)=CC=CC(C)=CC(=O)O [Retinoic acid]

row,LC retention time,Structure (SMILES)
1,8.44 min,NC(CO)C(=O)NC(Cc1ccc(O)cc1)C(=O)O (centres undefined) [Ser-Tyr]
2,8.07 min,CC(=O)NC(Cc1cnc[nH]1)C(=O)O (centres undefined) [N-Acetylhistidine]
3,4.9 min,Clc1ccc2c(c1)CCc1cccnc1C2=C1CCNCC1 [Desloratadine]
4,3.6 min,CC(C)C(=O)NCC(=O)O [N-Isobutyrylglycine]
5,2.81 min,CC(=O)NC(Cc1c[nH]c2ccccc12)C(=O)O (centres undefined) [N-Acetyltryptophan]
6,1.16 min,Cc1ccnc2c1NC(=O)c1cccnc1N2C1CC1 [Viramune]
7,8.73 min,NC(CO)C(=O)O (centres undefined) [Serine]
8,1.09 min,CC1=NS(=O)(=O)c2cc(Cl)ccc2N1 [Diazoxide]
9,2.53 min,CNC(CC(=O)O)C(=O)O (centres undefined) [N-Methylaspartic acid]
10,1.01 min,Cc1onc(-c2ccccc2)c1-c1ccc(S(N)(=O)=O)cc1 [Valdecoxib]
11,6.22 min,CNC(Cc1ccccc1)C(=O)O (centres undefined) [N-Methylphenylalanine]
12,4.19 min,COc1cc(C)c(Cc2cnc(N)nc2N)cc1OC [Ormetroprim]
13,9.18 min,NCC(=O)NCC(=O)NCC(=O)O [Gly-Gly-Gly]
14,1.13 min,CC1CC2C3CCC4=CC(=O)C=CC4(C)C3(F)C(O)CC2(C)C1C(=O)CO (centres undefined) [Desoximetasone]
15,1.49 min,CC(N=C(NC#N)Nc1ccncc1)C(C)(C)C (centres undefined) [Pinacidil]
16,1.89 min,CN(C)CCOc1ccc(C(=C(CCCl)c2ccccc2)c2ccccc2)cc1 [Toremifene]
17,7.32 min,CC(C)CC(N)C(=O)N1CCCC1C(=O)O (centres undefined) [Leu-Pro]
18,0.97 min,CC(=O)C1CCC2C3CCC4=CC(=O)CCC4(C)C3CCC12C (centres undefined) [Progesterone]
19,2.84 min,CC(C)C(=O)C(=O)O [Ketoisovaleric acid]
20,7.66 min,CCNC(=O)CCC(N)C(=O)O (centres undefined) [Theanine]
21,6.66 min,c1ccc2c(c1)Cc1ccccc1-2 [Fluorene]
22,3.31 min,CCN1CCN(c2cc3c(cc2F)c(=O)c(C(=O)O)cn3C2CC2)CC1 [Enrofloxacin]
23,1.07 min,COc1cc(CNC(=O)CCCCCCC(C)C)ccc1O [Dihydrocapsaicin]
24,5.03 min,CCc1c2c(nc3ccc(OC(=O)N4CCC(N5CCCCC5)CC4)cc13)-c1cc3c(c(=O)n1C2)COC(=O)C3(O)CC (centres undefined) [Irinotecan]
